Legend:
[1] = test system: AR; assay: ChIP-seq of AR in DHT-stimulated VCaP cells; assay type: cell-based; details: DHT 10 nM plus JQ1 500 nM, MDV3100 10 μM or Bicalutamide 25 μM, FIG. 17
Method: (§1) The ChIP assays for BRD2, BRD3, BRD4, AR, RNA PolII, ERG and H3K27ac were performed using HighCell ChIP kit (Diagenode) according to manufacturer's protocol. […] Next, cells were cross-linked for 10 min. with 1% formaldehyde. […] Chromatin equivalent to 5×10^6 cells were used for ChIP using different antibodies. ChIP DNA was isolated (IPure Kit, Diagenode) from samples by incubation with the antibody at 4° C. overnight followed by wash and reversal of cross-linking. The ChIP-seq sample preparation for sequencing was performed according to the manufacturer's instructions (Illumina). […] A single A-base was added to fragment ends by Klenow fragment (3′ to 5′ exo minus; NEB) followed by ligation of Illumina adaptors (Quick ligase, NEB). The adaptor-modified DNA fragments were enriched by PCR using the Illumina Barcode primers and Phusion DNA polymerase (NEB). PCR products were size selected using 3% NuSieve agarose gels (Lonza) followed by gel extraction using QIAEX II reagents (QIAGEN). Libraries were quantified with the Bioanalyzer 2100 (Agilent) and sequenced on the Illumina HiSeq 2000 Sequencer (100 nucleotide read length).
For enrichment plots shown in FIGS. 17, 19 and 20, identified peaks for each sample are centered by peak summit and average coverage per million was counted within 1500 bp relative to the peak center.

[2] = test system: BRD2/3/4; assay: ChIP-seq of BRD2/3/4 in VCaP cells; assay type: cell-based; details: 500 nM, 12 h
Method: as §1

[3] = test system: MYC signature; assay: Gene expression array, GSEA of MYC signature, VCaP; assay type: cell-based; details: VCaP after JQ1 treatment
Method: (§2) Cells treated with only vehicle or 10 nM DHT served as controls. […] Expression profiling was performed using the Agilent Whole Human Genome Oligo Microarray (SantaClara, Calif.) according to the manufacturer's protocol. All samples were run in technical duplicates or quadruplets against control. Over- and under-expressed gene sets were generated by filtering to include only 2-fold average over- or underexpression (Log ratio with p<0.001) in all hybridizations.

[4] = test system: VCaP xenograft model; assay: Spontaneous metastasis in the VCaP xenograft model (human Alu qPCR); assay type: in vivo, mice; details: femur, liver and spleen; JQ1 50 mg/kg, MDV3100 10 mg/kg
Method: Four week-old male SCID C.B17 mice were procured from a breeding colony at University of Michigan. All procedures involving mice were approved by the University Committee on Use and Care of Animals (UCUCA) at the University of Michigan and conform to all regulatory standards. Mice were anesthetized using 2% Isoflurane (inhalation) and 2×10^6 VCaP prostate cancer cells suspended in 100 μl of PBS with 50% Matrigel (BD Biosciences) were implanted subcutaneously into the dorsal flank on both sides of the mice. […] Growth in tumor volume was recorded using digital calipers and tumor volumes were estimated using the formula (π/6) (L×W^2), where L=length of tumor and W=width. Loss of body weight during the course of the study was also monitored. At the end of the studies mice were sacrificed and tumors extracted and weighed. Additionally, femur bone marrow, liver and spleen were harvested to examine spontaneous metastasis by detecting human-Alu sequence. […] All procedures involving mice were approved by the University Committee on Use and Care of Animals (UCUCA) at the University of Michigan and conform to all regulatory standards.

[5] = Prostate histology and hormone measurement in mice; assay type: in vivo
Method: Highly hormone responsive seminal vesicles attached to prostate were harvested from mice after four weeks of injection. Prostate were fixed in formalin solution and processed for sectioning. Standard H&E staining was achieved on the formalin fixed sections and were used to image the different lobes of the gland. To determine the testosterone levels, blood samples were collected by cardiac puncture from mice anesthetized with isoflurane. The serum was separated from the blood and stored at −80° C. until assayed. Serum testosterone levels were measured by the Ligand Assay at University of Michigan-ULAM Pathology Cores for Animal Research.

[6] = test system: MYC; assay: MYC levels in prostate cancer cells; assay type: cell-based; details: AR-positive cells sensitive to JQ1, not AR-negative cells
Method: Total RNA was isolated from cells using RNeasy Mini Kit (Qiagen) and cDNA was synthesized from 1,000 ng total RNA using SuperScript III First-Strand Synthesis SuperMix (Invitrogen). QPCRs were performed in duplicate or triplicate using Taqman assays (Applied Biosystems) or standard SYBR green reagents and protocols on a StepOnePlus Real-Time PCR system (Applied Biosystems). The target mRNA expression was quantified using ΔΔCt method and normalized to GAPDH expression. All primers were designed using Primer 3 (http://frodo.wi.mit.edu/primer3/) and synthesized by Integrated DNA Technologies (Coralville, Iowa).
(§3) For Western blot analysis, 200 ug total protein extract was boiled in sample buffer and 10-20 μg aliquots were separated by SDS-PAGE and transferred onto Polyvinylidene Difluoride membrane (GE Healthcare). The membrane was incubated for one hour in blocking buffer [Tris-buffered saline, 0.1% Tween (TBS-T), 5% nonfat dry milk] followed by incubation overnight at 4° C. with the primary antibody. Following a wash with TBS-T, the blot was incubated with horseradish peroxidase-conjugated secondary antibody and signals were visualized by enhanced chemiluminescence system as per manufacturer's protocol (GE Healthcare).

[7] = test system: AR-positive cells; assay: Cell cycle analysis and apoptosis (cleaved PARP immunoblot); assay type: cell-based; details: FIG. 2
Method: For cell cycle analysis, cells were washed 48 h post-treatment with PBS and fixed in 70% ethanol overnight. The cells were washed again with PBS, stained with propidium iodide and analyzed by flow cytometry.
as §3

[8] = test system: MYC signature; assay: Gene expression array, GSEA of MYC signature, LNCaP; assay type: cell-based; details: LNCaP after JQ1 treatment
Method: as §2

[9] = test system: AR-gene signature; assay: Gene expression array, GSEA of the AR target gene signature; assay type: cell-based; details: AR-positive cells; 500 nM, 24 h; FIG. 6
Method: as §2

[10] = gene set SCHLOSSER_MYC_AND_SERUM_RESPONSE_SYNERGY
[11] = gene set SCHLOSSER_MYC_TARGETS_AND_SERUM_RESPONSE_UP
[12] = gene set SCHUHMACHER_MYC_TARGETS_UP

For Cc1sc2c(c1C)C(c1ccc(Cl)cc1)=N[C@@H](CC(=O)OC(C)(C)C)c1nnc(C)n1-2 [JQ1], the “recruitment of AR to target loci” value [1] was “block AR recruitment to a level almost equivalent to MDV3100”, the “recruitment of BRD2/3/4 to the chromatin” value [2] was “reduction in the recruitment” and the NES ([3]; gene set MYC_UP.V1_UP) was −2.265. The NES [3, 10] was −1.818, the NES [3, 11] was −1.824 and the NES [3, 12] was −2.275. For the same compound, the spontaneous metastasis [4] was “no evidence of metastasis”, the physiologic androgen-regulated processes [5] was “No effect on physiologic androgen-regulated processes” and the testes size [5] was “reduced testes size”. The MYC levels [6] was “attenuated”, the “cell cycle arrest and apoptosis” value [7] was “induced G0-G1 arrest, apoptosis” and the NES ([8]; gene set MYC_UP.V1_UP) was −2.068. It also gave an NES [8, 10] of −1.751, an NES [8, 11] of −1.957 and an NES [8, 12] of −2.403. The “GSEA of AR-gene signature” value [9] was “significantly repressed”.

From patent US9580430B2, “9H-pyrimido[4,5-B]indoles and related analogs as BET bromodomain inhibitors” (THE REGENTS OF THE UNIVERSITY OF MICHIGAN, priority 2014, dated 2017)
